# Reference: publication PMC5897141 (Journal of neurochemistry, 2018)
# “And” between values parts separate entries of the source, which are not always exact repeats. Equal values may be shown once. Read-outs that look alike come from different tables or passages of the source.
# How the values were obtained:
# [1] = HPLC radio-metabolite analysis of arterial plasma; type: in vivo, cynomolgus macaques
# VAChT = type: in vivo, cynomolgus macaques; conditions: mean ± SD, n = 3
# [2] = after 20 min p.i., 3 NHP subjects
smiles,measurement,setting,value
"O=C(c1ccc(F)cc1)C1CCN(C2Cc3c(cccc3OCCF)CC2O)CC1 (single isomer, unassigned; (-)) [[^18F]VAT, ((-)-(1-(-8-(2-fluoroethoxy)-3-hydroxy-1,2,3,4-tetrahydronaphthalen-2-yl)piperidin-4-yl)(4-fluorophenyl)-methanone)]",percentile of unmetabolized parental tracer in plasma,[1]; 2 min post-injection,96% ± 1
same,percentile of unmetabolized parental tracer in plasma,[1]; 90 min post-injection,14% ± 2.7
same,parent tracer as share of total radioactivity in plasma,[1]; [2],over 60%
same,polar metabolites as share of total radioactivity in plasma,[1]; [2],~ 40%
same,time of peak concentration of parental compound in plasma,[1]; post-injection,less than 1 min
same,BPND,"VAChT; 1TCM, striatum",2.69 ± 1.1 (24%)
same,DVR,"VAChT; 1TCM, striatum",3.70 ± 1.1 (17%)
same,K1,"VAChT; 1TCM, striatum",0.221 ± 0.20 (52%) mL·cm^−3·min^−1
same,VT,"VAChT; 1TCM, striatum",22.12 ± 14.1 (37%) mL· cm^−3
same,k2,"VAChT; 1TCM, striatum",0.009 ± 0.004 (26%) min^−1
same,BPND = DVR-1,"VAChT; 2TCM, cerebellum-hemispheres (reference region)",0.00 ± 0.00
same,K1,"VAChT; 2TCM, cerebellum-hemispheres",0.144 ± 0.093 mL·cm^−3·min^−1
same,VT,"VAChT; 2TCM, cerebellum-hemispheres",5.85 ± 5.88 mL· cm^−3
same,k2,"VAChT; 2TCM, cerebellum-hemispheres",0.063 ± 0.010 min⁻¹
same,k3,"VAChT; 2TCM, cerebellum-hemispheres",0.007 ± 0.005 min⁻¹
same,k3 / k4,"VAChT; 2TCM, cerebellum-hemispheres",1.09 ± 0.84
same,k4,"VAChT; 2TCM, cerebellum-hemispheres",0.004 ± 0.003 min⁻¹
same,BPND = DVR-1,"VAChT; 2TCM, frontal cortex",0.44 ± 0.10
same,K1,"VAChT; 2TCM, frontal cortex",0.103 ± 0.046 mL·cm^−3·min^−1
same,VT,"VAChT; 2TCM, frontal cortex",7.13 ± 6.52 mL· cm^−3
same,k2,"VAChT; 2TCM, frontal cortex",0.035 ± 0.004 min⁻¹
same,k3,"VAChT; 2TCM, frontal cortex",0.010 ± 0.012 min⁻¹
same,k3 / k4,"VAChT; 2TCM, frontal cortex",0.94 ± 0.64
same,k4,"VAChT; 2TCM, frontal cortex",0.004 ± 0.001 min⁻¹
same,BPND = DVR-1,"VAChT; 2TCM, hippocampus",0.61 ± 0.41
same,K1,"VAChT; 2TCM, hippocampus",0.102 ± 0.059 mL·cm^−3·min^−1
same,VT,"VAChT; 2TCM, hippocampus",7.46 ± 5.56 mL· cm^−3
same,k2,"VAChT; 2TCM, hippocampus",0.035 ± 0.008 min⁻¹
same,k3,"VAChT; 2TCM, hippocampus",0.014 ± 0.010 min⁻¹
same,k3 / k4,"VAChT; 2TCM, hippocampus",1.15 ± 0.62
same,k4,"VAChT; 2TCM, hippocampus",0.014 ± 0.013 min⁻¹
same,BPND = DVR-1,"VAChT; 2TCM, midbrain",0.18 ± 0.13
same,K1,"VAChT; 2TCM, midbrain",0.107 ± 0.091 mL·cm^−3·min^−1
same,VT,"VAChT; 2TCM, midbrain",5.61 ± 4.55 mL· cm^−3
same,k2,"VAChT; 2TCM, midbrain",0.039 ± 0.009 min⁻¹
same,k3,"VAChT; 2TCM, midbrain",0.007 ± 0.003 min⁻¹
same,k3 / k4,"VAChT; 2TCM, midbrain",1.06 ± 0.30
same,k4,"VAChT; 2TCM, midbrain",0.006 ± 0.001 min⁻¹
same,BPND = DVR-1,"VAChT; 2TCM, occipital cortex",0.12 ± 0.075
same,K1,"VAChT; 2TCM, occipital cortex",0.101 ± 0.054 mL·cm^−3·min^−1
same,VT,"VAChT; 2TCM, occipital cortex",5.51 ± 4.97 mL· cm^−3
same,k2,"VAChT; 2TCM, occipital cortex",0.039 ± 0.005 min⁻¹
same,k3,"VAChT; 2TCM, occipital cortex",0.004 ± 0.001 min⁻¹
same,k3 / k4,"VAChT; 2TCM, occipital cortex",0.82 ± 0.53
same,k4,"VAChT; 2TCM, occipital cortex",0.005 ± 0.001 min⁻¹
same,DVR,"VAChT; 2TCM, striatum",4.37 ± 0.34 (4%)
same,K1,"VAChT; 2TCM, striatum",0.113 ± 0.068 (35%) mL·cm^−3·min^−1 and 0.113 ± 0.068 mL·cm^−3·min^−1
same,VT,"VAChT; 2TCM, striatum",22.31 ± 20.7 (54%) mL· cm^−3 and 22.31 ± 20.71 mL· cm^−3
same,k2,"VAChT; 2TCM, striatum",0.027 ± 0.005 (11%) min^−1 and 0.027 ± 0.005 min^−1
same,k3,"VAChT; 2TCM, striatum",0.019 ± 0.009 (27%) min^−1 and 0.019 ± 0.009 min^−1
same,k3 / k4,"VAChT; 2TCM, striatum",3.52 ± 1.14
same,k4,"VAChT; 2TCM, striatum",0.005 ± 0.001 (12%) min^−1 and 0.005 ± 0.001 min^−1
same,BPND = DVR-1,"VAChT; 2TCM, temporal cortex",0.097 ± 0.076
same,K1,"VAChT; 2TCM, temporal cortex",0.086 ± 0.042 mL·cm^−3·min^−1
same,VT,"VAChT; 2TCM, temporal cortex",5.23 ± 4.45 mL· cm^−3
same,k2,"VAChT; 2TCM, temporal cortex",0.033 ± 0.003 min⁻¹
same,k3,"VAChT; 2TCM, temporal cortex",0.003 ± 0.001 min⁻¹
same,k3 / k4,"VAChT; 2TCM, temporal cortex",0.74 ± 0.48
same,k4,"VAChT; 2TCM, temporal cortex",0.005 ± 0.002 min⁻¹
same,BPND = DVR-1,"VAChT; 2TCM, thalamus",1.16 ± 0.24
same,K1,"VAChT; 2TCM, thalamus",0.112 ± 0.061 mL·cm^−3·min^−1
same,VT,"VAChT; 2TCM, thalamus",10.09 ± 8.25 mL· cm^−3
same,k2,"VAChT; 2TCM, thalamus",0.030 ± 0.004 min⁻¹
same,k3,"VAChT; 2TCM, thalamus",0.006 ± 0.002 min⁻¹
same,k3 / k4,"VAChT; 2TCM, thalamus",1.38 ± 0.26
same,k4,"VAChT; 2TCM, thalamus",0.004 ± 0.001 min⁻¹
same,BPND = DVR-1,"VAChT; 2TCM, vermis",0.22 ± 0.55
same,K1,"VAChT; 2TCM, vermis",0.180 ± 0.069 mL·cm^−3·min^−1
same,VT,"VAChT; 2TCM, vermis",4.77 ± 2.72 mL· cm^−3
same,k2,"VAChT; 2TCM, vermis",0.068 ± 0.005 min⁻¹
same,k3,"VAChT; 2TCM, vermis",0.004 ± 0.003 min⁻¹
same,k3 / k4,"VAChT; 2TCM, vermis",0.75 ± 0.43
same,k4,"VAChT; 2TCM, vermis",0.005 ± 0.001 min⁻¹
same,BPND = DVR-1,"VAChT; 2TCM, white matter",0.21 ± 0.13
same,K1,"VAChT; 2TCM, white matter",0.065 ± 0.041 mL·cm^−3·min^−1
same,VT,"VAChT; 2TCM, white matter",5.66 ± 4.49 mL· cm^−3
